Measurements published in PubChem BioAssay (NCI).
Several values for one entry are separate records, joined by “and”; a condition that tells them apart may be missing. Equal entries are not always repeated.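 Cultured in 96-well plates, cells were exposed to test compound for 48 hours across five concentrations. Abbreviation: GI50, concentration required for 50% inhibition of growth. TGI denotes the concentration required for complete inhibition of growth.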 Where a SMILES comes first, the peptide text is derived from it. The star is where a group is joined. Cbz = O=C(OCc1ccccc1)*; CH2Cl = ClC*

How the values were obtained:
Test in all cases: NCI anticancer screen, dose series, 48 h
SK-MEL-2 melanoma = test system: SK-MEL-2 melanoma
786-0 renal = test system: 786-0 renal
SR leukemia = test system: SR leukemia
MOLT-4 leukemia = test system: MOLT-4 leukemia
RXF 393 renal = test system: RXF 393 renal
M14 melanoma = test system: M14 melanoma
HCT-15 colon = test system: HCT-15 colon
OVCAR-4 ovarian = test system: OVCAR-4 ovarian
K-562 leukemia = test system: K-562 leukemia
MDA-MB-435 = test system: MDA-MB-435

SMILES	GI50 (SK-MEL-2 melanoma)	TGI (SK-MEL-2 melanoma)	GI50 (786-0 renal)	TGI (786-0 renal)	GI50 (SR leukemia)	TGI (SR leukemia)	GI50 (MOLT-4 leukemia)	TGI (MOLT-4 leukemia)	GI50 (RXF 393 renal)	TGI (RXF 393 renal)	GI50 (M14 melanoma)	TGI (M14 melanoma)	GI50 (HCT-15 colon)	TGI (HCT-15 colon)	GI50 (OVCAR-4 ovarian)	TGI (OVCAR-4 ovarian)	GI50 (K-562 leukemia)	TGI (K-562 leukemia)	GI50 (MDA-MB-435)	TGI (MDA-MB-435)
C=CCCCCOc1ccccc1-c1cnc(OCCCCC=C)n1C	2.56 µM	5.88 µM	5.29 µM	21.3 µM	4.3 µM	13.7 µM	4.54 µM	18.7 µM	5.23 µM	18.2 µM	2.88 µM	14.6 µM	4 µM	16.3 µM	10.3 µM	50.7 µM	3.74 µM	14.1 µM	2.08 µM	5.22 µM
COc1cc2c(c(OC)c1OC)-c1ccc(SC)c(=O)cc1C(NC=O)CC2 (stereo not drawn)	–	> 94.7 µM	–	> 100 µM	–	36.6 µM	–	48.9 µM	–	> 67.9 µM	–	> 21.5 µM	–	> 37.4 µM	–	> 100 µM	–	> 77.2 µM	–	< 0.01 µM
NCCNc1c2c(c(NCCN)c3[nH]ccc13)C(=O)c1ccccc1C2=O	0.785 µM	2.41 µM	0.224 µM	1.04 µM	0.0527 µM	0.334 µM	< 0.01 µM	0.0437 µM	0.0488 µM	0.525 µM	1.45 µM	2.76 µM	0.845 µM	14.8 µM	0.296 µM	1.34 µM	0.118 µM	1.14 µM	0.225 µM	0.692 µM
COc1cc(Cn2c(-c3ccccc3)c(Cl)c3c2-c2oncc2CC3)cc(OC)c1	10.6 µM	> 100 µM	12.9 µM	> 100 µM	2.92 µM	15.5 µM	3.43 µM	> 100 µM	5.96 µM	21.5 µM	4.22 µM	18.1 µM	4.84 µM	> 100 µM	6.57 µM	79.8 µM	3.08 µM	> 100 µM	2.26 µM	5.97 µM
C=C(Cl)C(Br)(CCl)CCC(Br)C(C)(C)Cl (stereo not drawn)	3.14 µM	7.42 µM	1.67 µM	3.73 µM and 3.21 µM	–	7.28 µM	–	8.82 µM	–	6.98 µM and 5.42 µM	2.01 µM	7.74 µM and 4.9 µM	2.01 µM	9.57 µM and 3.94 µM	3.25 µM	8.24 µM	7.84 µM	9.43 µM and 40.4 µM	2.13 µM	8.65 µM and 4.27 µM
COc1c(OC[C@H](O)CN2CCOCC2)ccc2c3n(c(=NC(=O)c4cccnc4C)nc12)CCN3	> 50 µM	> 50 µM	0.399 µM	> 50 µM	> 50 µM	> 50 µM	0.305 µM	> 50 µM	0.192 µM	2.38 µM	27.8 µM	> 50 µM	1.62 µM	> 50 µM	> 50 µM	> 50 µM	> 50 µM	> 50 µM	14.1 µM	> 50 µM
Cc1ccc(NC(=O)CC2CC2)cc1-c1ccc(C(=O)NCC2CC2)cc1	> 25 µM	> 25 µM	> 25 µM	> 25 µM	13.5 µM	> 25 µM	> 25 µM	> 25 µM	> 25 µM	> 25 µM	> 25 µM	> 25 µM	> 25 µM	> 25 µM	> 25 µM	> 25 µM	> 14.1 µM	> 25 µM	> 19.5 µM	> 25 µM
CC[C@H]1[C@@H]2C=C[C@@H]3[C@H]4C/C=C\C(=O)NCCC[C@@H]5NC(=O)/C(=C(O)/C=C/[C@@H]4C[C@@H]3[C@H]2C[C@H]1C)C5=O	2.54 µM	6.01 µM	0.44 µM	1.59 µM	0.264 µM	1.94 µM	1.48 µM	3.47 µM	0.236 µM	0.84 µM	1.58 µM	3.08 µM	0.425 µM	1.86 µM	0.664 µM	2.16 µM	1.96 µM	4.24 µM	0.982 µM	2.25 µM
CCSc1ncnc2c1ncn2C1OC(CO)C(O)C1O (stereo not drawn)	24.1 µM	> 100 µM	0.449 µM	> 100 µM	25.3 µM	> 100 µM	0.173 µM	> 87.1 µM	16 µM	> 90.2 µM	0.589 µM	> 100 µM	0.274 µM	> 100 µM	9.87 µM	> 100 µM	3.06 µM	> 100 µM	0.482 µM	> 100 µM
O=C1OCC2=C1C(c1cccc(Br)c1)c1cc3c(cc1N2CCO)CCC3 (stereo not drawn)	0.231 µM	8.32 µM	0.201 µM	6.22 µM	0.185 µM	22.2 µM	0.262 µM	14.2 µM	0.0263 µM	1.61 µM	0.078 µM	5.78 µM	0.114 µM	7.14 µM	0.168 µM	16 µM	0.11 µM	7.9 µM	0.0132 µM	0.0423 µM
CN(C)C(n1cc2c(c1)-c1ccc(Cl)cc1C(c1ccccc1F)=NC2)n1cc2c(c1)-c1ccc(Cl)cc1C(c1ccccc1F)=NC2	–	> 100 µM	–	> 100 µM	–	> 100 µM	–	> 100 µM	–	66.6 µM	–	> 100 µM	–	> 100 µM	–	> 100 µM	–	> 100 µM	–	> 100 µM
COc1cc(NCc2ccc3nc(N)nc(N)c3c2C)cc(OC)c1OC (tested in a mixture with another compound)	0.339 µM	42.3 µM and 55.1 µM	0.0145 µM and 0.025 µM	–	–	> 44.4 µM	–	46.7 µM	–	27.5 µM	0.0222 µM and 0.025 µM	–	0.000451 µM	51.7 µM	0.15 µM	99.8 µM	0.000159 µM	46.3 µM	0.000388 µM	50.1 µM
Clc1ccc2[nH]cc(-c3nnnn3-c3ccccc3)c2c1	> 64.9 µM	> 100 µM	29.6 µM	> 100 µM	4.4 µM	> 38.9 µM	11 µM	> 53 µM	32.2 µM	> 100 µM	9.74 µM	41.8 µM	12 µM	> 100 µM	> 43.8 µM	> 100 µM	8.58 µM	> 67.3 µM	1.64 µM	4.16 µM
COc1ccc2[nH]cc(C3(c4c[nH]c5ccc(OC)cc45)C(=O)Nc4ccc(F)cc43)c2c1	2.34 µM	5.02 µM	3.39 µM	12.5 µM	2.03 µM	4.97 µM	1.97 µM	6.08 µM	2.31 µM	6.54 µM	2.41 µM	6.77 µM	4.12 µM	20.2 µM	2.76 µM	11.6 µM	2.24 µM	5.78 µM	1.97 µM	4.73 µM
CC(C)Oc1ccc2cc(-c3nn(CC4CCNCC4)c4ncnc(N)c34)ccc2c1	10.8 µM	24.4 µM	11 µM	24.4 µM	1.53 µM	4.44 µM	1.97 µM	5.95 µM	2.78 µM	9.73 µM	2.05 µM	4.68 µM	3.74 µM	15.8 µM	5.24 µM	19.5 µM	2.04 µM	6.29 µM	3.86 µM	14.6 µM
CC(=O)OC12C=CC(=O)N1c1ccccc1C(=O)O2 (stereo not drawn)	–	> 100 µM	–	> 100 µM	–	> 100 µM	–	> 100 µM	–	> 100 µM	–	> 100 µM	–	> 100 µM	–	> 100 µM	–	> 100 µM	> 100 µM	> 100 µM
CC(C)CC(NC(=O)OCc1ccccc1)C(=O)NC(Cc1ccccc1)C(=O)CCl (stereo not drawn) (Cbz-Leu-Phe-CH2Cl; configuration not given here)	–	7.37 µM	–	3.08 µM	–	4.66 µM	–	4.33 µM	–	3.3 µM	–	3.45 µM	–	3.34 µM	–	4.69 µM	–	6.77 µM	–	6.56 µM
